This is an account of results in the SangsterLogP compilation.

Usually logP stands for a log measure of how a compound divides between an organic and an aqueous phase. A low value points to a more hydrophilic compound.

The structures appear in SMILES notation.

On to `CC1CCC2CC(=O)N(Cc3ccc(Cl)cc3)C3OC4(C)CCC1C23OO4` (stereo not given), for which the logP stood at 4.32.
As to `CC(C)CN1C(=O)CC2CCC(C)C3CCC4(C)OOC23C1O4` (stereo not given), the log partition coefficient (logP) came out at 3.66.
Take `C[C@@H]1CC[C@H]2[C@@H](C)C(=O)O[C@@H]3O[C@@]4(C)CC[C@@H]1[C@]32OO4` (relative stereo): the logP turned out to be 2.9.
The same measure for `CCCCCN1C(=O)CC2CCC(C)C3CCC4(C)OOC23C1O4` (stereo not given): 4.24; for `C[C@@H]1CC[C@H]2[C@@H](C)CO[C@@H]3O[C@]4(C)CC[C@@H]1[C@]32OO4`: 3.16.
In turn, `CC1CCC2CC(=O)N(CCc3ccccc3)C3OC4(C)CCC1C23OO4` (stereo not given) showed a logP of 3.94.
With `CC(C)CCN1C(=O)CC2CCC(C)C3CCC4(C)OOC23C1O4` (stereo not given) the figure was 4.16.
`CC1CCC2CC(=O)N(CCCc3ccccc3)C3OC4(C)CCC1C23OO4` (stereo not given) gave a logP of 4.39.
As to `CCCN1C(=O)CC2CCC(C)C3CCC4(C)OOC23C1O4` (stereo not given), the logP was found to be 3.41.
With `CC1CCC2CC(=O)N(CC(=O)O)C3OC4(C)CCC1C23OO4` (stereo not given), the log partition coefficient (logP) came to 1.75.
